# Reference: patent publication US10226445B2, “Pharmaceutical preparations” (Symrise AG, priority 2013, dated 2019)
# Test system: HGT-1 cells
# Assay: Intracellular pH / proton secretion of HGT-1 cell cultures (SNARF-1-AM dye)
# Format: cell-based, human
# Conditions: for activation at 30 µM: 0.03 mM substance of group (a) alone; for activation at 300 µM: 0.3 mM substance of group (a) alone; for stimulation of proton secretion by 3 mM caffeine or 0.3 mM theobromine (in words): additional administration at a concentration of 0.3 mM; for induced gastric acid secretion (in words): preparations with caffeine and/or theobromine as component (b); for proton secretion in the HGT-1 cells (in words): substances of group (b), Tables 1A and 1B
# Procedure: Human parietal cells, also known as human gastric tumor cell line (HGT-1), are used as cell model. These were provided by Dr. C. Laboisse (Laboratory of Pathological Anatomy, Nantes, France). The cells were cultured under standard conditions at 37° C., 5% CO2 in DMEM (Dulbecco's Modified Eagle's Medium) with 4 g/l glucose, 10% FBS, 2% L-glutamine and 1% penicillin/streptomycin. For the measurement of the intracellular proton concentration, the cells are treated with trypsin/EDTA, the viability determined by means of trypan blue staining and 100 000 cells/well seeded in black 96-well plates.
# To measure the intracellular pH, the dye 1,5-carboxyseminaphthorhodafluoro acetoxymethyl ester (SNARF-1-AM) is used. The cells in the 96-well plates are washed once with Krebs-Hepes buffer (KRHP) and incubated at 37° C. and 5% CO2 for 30 min with the dye dissolved in KRHP at a concentration of 3 μM. The cells are then washed twice with KRHP and substances of group (b), for example 3 mM caffeine or 0.3 mM theobromine, alone or in combination with substances of group (a), for example, homoeriodictyol (HED) or eriodictyol or matairesinol, lariciresinol or enterolactone, are applied in volumes of 100 μl at various concentrations in phenol red-free DMEM; as additional control experiments, the abovementioned substances of group (a) are tested alone. Homoeriodictyol is dissolved in double-distilled water while eriodictyol, matairesinol, lariciresinol or enterolactone are dissolved in ethanol (EtOH). The final concentration of solvent which is added to the cells is at most 1%. The fluorescent dye is excited at a wavelength of 488 nm and the emission measured at 580 nm and 640 nm. The ratio of the fluorescence values at 580 nm to 640 nm is compared to a calibration curve from which the pH can be determined. For the calibration curve, the cells are treated with a potassium phosphate buffer of different pH values from pH 7.2-8.2 and 2 μM nigericin. Nigericin equilibrates the intracellular and extracellular pH such that the intracellular pH may be defined. The intracellular H^+ concentration is determined from the intracellular pH. The intracellular proton index (IPX) is calculated by log 2 transformation of the ratio of treated cells and untreated cells (control). […] The number of replicates specified refers to the technical replicates (tr) or the number or total replicates (n), which results from the number of technical replicates multiplied by the number of biological replicates.
# [1] = 0.03 mM substance of group (a) in combination with 0.3 mM theobromine, 10 minutes
# [2] = 0.03 mM substance of group (a) in combination with 3 mM caffeine, 10 minutes
# [3] = 0.3 mM substance of group (a) in combination with 0.3 mM theobromine, 10 minutes
# [4] = 0.3 mM substance of group (a) in combination with 3 mM caffeine, 10 minutes
# [5] = Homo sapiens, HGT-1, 10 min, 10 minutes, read-out: T/C [%], percentage increase of the proton secretion compared to untreated controls
Compound,"T/C [%], percentage increase of the proton secretion compared to untreated controls (0.003 mM substance of group (a) in combination with 0.3 mM theobromine, 10 minutes) [%]","T/C [%], percentage increase of the proton secretion compared to untreated controls [1] [%]","T/C [%], percentage increase of the proton secretion compared to untreated controls [2] [%]","T/C [%], percentage increase of the proton secretion compared to untreated controls [3] [%]","T/C [%], percentage increase of the proton secretion compared to untreated controls [4] [%]","activation at 3 µM (Homo sapiens, HGT-1, 10 min, 0.003 mM substance of group (a) alone, 10 minutes, read-out: T/C [%], percentage increase of the proton secretion compared to untreated controls) [%]",activation at 30 µM [5] [%],activation at 300 µM [5] [%],stimulation of proton secretion by 3 mM caffeine or 0.3 mM theobromine (in words),induced gastric acid secretion (in words),"T/C [%], percentage increase of the proton secretion compared to untreated controls (3 mM substance + 1% EtOH, 10 minutes stimulation) [%]",proton secretion in the HGT-1 cells (in words),"activation at 1000 µM (Homo sapiens, HGT-1, 10 min, 1 mM substance alone, 10 minutes stimulation, read-out: T/C [%], percentage increase of the proton secretion compared to untreated controls) [%]","T/C [%], percentage increase of the proton secretion compared to untreated controls (0.3 mM substance of group (b) + 1% EtOH, 10 minutes stimulation) [%]"
"COc1cc(C2CC(=O)c3c(O)cc(O)cc3O2)ccc1O (stereo not drawn) [HED, homoeriodictyol]",21.56,13.79,37.99,−16.92,20.18,-8.04,12.7,-3.66,reduced or completely inhibited,highest reduction or complete inhibition,,,,
"COc1cc(C[C@H]2COC(=O)[C@@H]2Cc2ccc(O)c(OC)c2)ccc1O [Matairesinol, matairesinol]",,23.41,14.39,−18.25,−20.43,,-9.4,-31.7,reduced or completely inhibited,highest reduction or complete inhibition,,,,
"Cn1c(=O)c2c(ncn2C)n(C)c1=O [Caffeine, caffeine, reference compound]",,,,,,,,,,,44.92,stimulated,,
"O=C1CC(c2ccc(O)c(O)c2)Oc2cc(O)cc(O)c21 (stereo not drawn) [Eriodictyol, eriodictyol]",,23.95,29.69,−42.86,−33.96,,-10.8,-11.7,reduced or completely inhibited,highest reduction or complete inhibition,,,,
"O=C1OC[C@@H](Cc2cccc(O)c2)[C@@H]1Cc1cccc(O)c1 [Enterolactone, enterolactone]",,,23.41,,−18.25,,-2.76,-27.3,reduced or completely inhibited,highest reduction or complete inhibition,,,,
"NCCc1c[nH]cn1 [Histamine, reference compound]",,,,,,,,,,,,,27.4,
"COc1cc(C[C@H]2CO[C@H](c3ccc(O)c(OC)c3)[C@H]2CO)ccc1O [Lariciresinol, lariciresinol]",,31.73,46.40,17.55,21.57,,6.4,-2.04,reduced or completely inhibited,highest reduction or complete inhibition,,,,
"Cn1cnc2c1c(=O)[nH]c(=O)n2C [Theobromine, theobromine, reference compound]",,,,,,,,,,,,stimulated,,32.11
